Measurements as given in ChEMBL document CHEMBL1201862, “PubChem BioAssay data set” (2004).
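Values below derive from 48-hour exposures of cells grown in 96-well plates, with endpoints linearly interpolated between the two concentrations bracketing the appropriate inhibition level. The concentration for 50% growth inhibition is given as GI50.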 Activity calls are given as the source filed them. Cut-off read from the data, not from the text of the source: active = GI50 up to about 1.1 µM and inactive = higher.

Legend:
Assay in all cases: NCI anticancer screen, dose series, 48 h
[1] = tested on: CAKI-1
[2] = tested on: CCRF-CEM
[3] = tested on: DU-145
[4] = tested on: EKVX
[5] = tested on: HCT-116
[6] = tested on: HL-60
[7] = tested on: HOP-92
[8] = tested on: HT-29
[9] = tested on: MDA-N
[10] = tested on: NCI-H23
[11] = tested on: OVCAR-5
[12] = tested on: OVCAR-8
[13] = tested on: PC-3
[14] = tested on: SF-539
[15] = tested on: SK-MEL-28
[16] = tested on: SK-MEL-2
[17] = tested on: SK-MEL-5
[18] = tested on: SK-OV-3
[19] = tested on: T47D
[20] = tested on: TK-10

Cc1ccc(/C=C2\CNC/C(=C\c3ccc(C)cc3)C2=O)cc1
GI50 [1]: 2.46 µM (inactive)
GI50 [2]: 0.689 µM (active)
GI50 [3]: 4.48 µM (inactive)
GI50 [4]: 3.92 µM (inactive)
GI50 [5]: 0.313 µM (active)
GI50 [6]: 0.479 µM (active)
GI50 [7]: 4.54 µM (inactive)
GI50 [8]: 0.617 µM (active)
GI50 [9]: 2.49 µM (inactive)
GI50 [10]: 1.83 µM (inactive)
GI50 [11]: 3.87 µM (inactive)
GI50 [12]: 2.19 µM (inactive)
GI50 [13]: 2.62 µM (inactive)
GI50 [14]: 2.2 µM (inactive)
GI50 [15]: 2.04 µM (inactive)
GI50 [16]: 9.02 µM (inactive)
GI50 [17]: 2.43 µM (inactive)
GI50 [18]: 2.4 µM (inactive)
GI50 [19]: 2.65 µM (inactive)
GI50 [20]: 5.48 µM (inactive)

CCOc1ccc2ccc3cccnc3c2n1
GI50 [1]: > 100 µM (inactive)
GI50 [2]: 59 µM (inactive)
GI50 [3]: > 100 µM (inactive)
GI50 [4]: 36.5 µM (inactive)
GI50 [5]: 34 µM (inactive)
GI50 [6]: 22.3 µM (inactive)
GI50 [7]: 44.7 µM (inactive)
GI50 [8]: 34.1 µM (inactive)
GI50 [9]: > 100 µM (inactive)
GI50 [10]: 61.7 µM (inactive)
GI50 [11]: 55.6 µM (inactive)
GI50 [12]: 72.8 µM (inactive)
GI50 [13]: 34.2 µM (inactive)
GI50 [14]: > 100 µM (inactive)
GI50 [15]: > 100 µM (inactive)
GI50 [16]: 81.7 µM (inactive)
GI50 [17]: 32.7 µM (inactive)
GI50 [18]: 43.4 µM (inactive)
GI50 [19]: 32.7 µM (inactive)
GI50 [20]: 34.2 µM (inactive)
